# From US12578339B2, “Hexokinase 1 isoform B for use as a prognosis marker and specific target against cancer” (ISTANBUL MEDIPOL UNIVERSITESI, priority 2019, dated 2026)
# Entries after “also recorded” stand apart in the source; their conditions may differ.
# What was measured:
# Assay type in all cases: cell-based, Human
# [1] = tested on: A549 HK1b−/− cells; assay: Seahorse XF glycolysis stress test (ECAR); details: treated A549 HK1b−/− cells
# Method: (§1) For Seahorse XFe96 assays, cells were seeded at pre-optimized final concentration 1.5×10^4 cells/well onto Seahorse XF-96-well plates and Glycolytic rate, Glycolysis stress and Mito Stress Tests were performed following the manufacturer's specifications (Seahorse Bioscience, North Billerica, MA). Each datum was determined minimally in triplicate. OCR and ECAR were reported as absolute rates (pmoles/min for OCR and mpH/min for ECAR) or normalized against cell counts, or expressed as a percentage of the baseline oxygen consumption.
# [2] = tested on: A549 HK1b−/− cells; assay: Flow cytometric analysis of mTOR activation; details: flow cytometry, HK1b deletion plus treatment, p=0.001
# [3] = tested on: A549 WT cells; assay: Seahorse Mito Stress Test (OCR); details: treated A549 WT cells, p=0.02
# Method: as §1
# [4] = tested on: A549 HK1b−/− cells; assay: Seahorse Mito Stress Test (OCR); details: between treated A549 WT and A549 HK1b−/− cells
# Method: as §1
# [5] = tested on: A549 HK1b−/− cells; assay: Flow cytometric quantification of cell death by propidium iodide staining; details: IC50 concentration (47 μM), 48 hrs
# [6] = tested on: A549 WT cells; assay: Immunoblot analysis of apoptotic, autophagic and survival signaling
# Method: (§2) Cells were harvested and washed in PBS solution, collected, and then subjected to lysis in RIPA buffer containing proteinase inhibitor cocktail and phosphatase inhibitor cocktail (Roche). The lysates were subjected to centrifugation at 10,000 g at 4 C for 20 minutes and the supernatants removed. The total protein ([…]) was fractioned by 10% SDS-PAGE and electrophoretically transferred to Immobilon-FL PVDF membranes. The membrane was blocked with blocking buffer (Li-Cor) at room temperature for 1 hour, and then incubated with appropriate primary antibody at 4 C overnight. After washing with PBS containing 0.05% […] (PBST), the membrane was incubated with 1:2500 dilutions of appropriate secondary antibody for 2 hours at room temperature. The membrane was washed with PBST again, and Pierce ECL Western Blotting Substrate (Thermo Scientific) was used for development of immunoreactive bands. For immunoblotting of tissue samples, proteins were extracted from tumor and adjacent non-tumor lung samples collected from human NSCLC patients, snap frozen in liquid nitrogen, and stored at −80° C. Then protein lysis buffer (described above) was added to samples. Samples were vortexed, homogenized and subjected to three freeze/thaw cycles in dry ice, centrifuged and supernatant collected, and stored at −80° C. for subsequent immunoblotting.
# [7] = tested on: A549 HK1b−/− cells; assay: as above
# Method: as §2
# [8] = tested on: A549 WT cells; assay: Cell viability assay (CellTiter-Blue); details: A549 WT control group, 48 h treatment
# Method: (§3) Twenty-four hours following seeding (15,000 cells/well) in a 96-well plate, A549 and A549 HK1b^−/− cells (70%-80% confluent) were treated with vehicle (PBS/Saline), or cisplatin with concentrations range from 0-100 μM/ml and the cells incubated for a further 48 h. The cell viability was determined using the CellTiter-Blue assay kit (Promega) according to the manufacturer's instructions and absorbance measured at 595 nm with a microplate reader (Model 3550, Bio-Rad Laboratories, CA, USA). IC50 was defined as the concentration causing a 50% reduction in absorbance relative to the negative control. IC50 was determined by non-linear regression analysis using Graphpad Prism v8 (Graphpad Software, CA, USA).
# [9] = tested on: A549 HK1b−/− cells; assay: Cell viability assay (CellTiter-Blue); details: 48 h treatment
# Method: as §3
smiles,measurement,setting,value
"N.N.[Cl][Pt][Cl] [cisplatin, Cisplatin]",basal glycolysis and glycolytic capacity (ECAR),[1],further reduction of basal glycolysis and glycolytic capacity even though not significant; also recorded: further reduced ablait not significant
same,glycolytic reserve,[1],total absence
same,mTOR phosphorylation,[2],significantly inhibits
same,spare respiratory capacity,[3],diminished
same,basal respiration rate,[4],no significant change
same,cell death measured by propidium iodide (PI) staining,[5],significantly enhance cell death
same,cleavage of PARP and caspase 3,"[6]; immunoblot, A549 WT (and HK1b−/−) cells",induces cleavage of PARP and caspase 3
same,AMPK phosphorylation,[6]; treated A549 WT cells,diminished
same,HK1 expression,[6]; treated A549 WT cells,significantly upregulated
same,induction of cleavage of PARP and caspase 3,[7]; A549 HK1b−/− cells compared with A549 WT,significantly higher
same,autophagy induction (LC3II),[7]; HK1b deletion plus treatment,induces greater autophagy
same,phosphorylation of STAT3 transcription factor,[7]; HK1b deletion plus treatment,inhibit significantly
same,AKT activation and its downstream target GSK3β,[7]; HK1b silencing in combination with treatment,totally inhibited
same,beclin-1 and ATG13 expression levels,[7]; both A549 WT and A549 HK1b−/− cells,downregulated
same,phosphorylation of mTOR,"[7]; immunoblot, HK1b deletion plus treatment",inhibits significantly; also recorded: inhibits phosphorylation
same,AMPK phosphorylation,[7]; treated A549 HK1b−/− cells,totally inhibited
same,Bcl-2 expression,[7]; treated A549 HK1b−/− cells,down-regulation of Bcl-2 expression was significant
same,HK2 expression,[7]; treated A549 HK1b−/− cells,reduced
same,IC50,[8],75 µM
same,IC50,[9],47 µM
